Results from US9265253B2, “Use of macrocyclic picolinamides as fungicides” (DOW AGROSCIENCES LLC, priority 2013, dated 2016).
Like-named read-outs stand apart in the source and are kept apart here.

How the values were obtained:
Assay type in all cases: in vivo
[1] = test system: Mycosphaerella graminicola; Anamorph: Septoria tritici; assay: Leaf Blotch of Wheat (SEPTTR) disease control; conditions: Zymoseptoria tritici; for pest or weed control at 100 ppm: rate 100 ppm; for pest or weed control at 121.5 g/ha: rate 121.5 g/H
Summary of the method: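 Percent disease control is derived from Septoria tritici leaf blotch severity (0 to 100 percent) on treated versus untreated wheat seedlings. Plants get fungicide spray to run-off, with inoculation either preceding or following application, then humid incubation at 20° C.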

[2] = test system: Puccinia triticina; Synonym: Puccinia recondite f. Sp. Tritici; assay: Wheat Brown Rust (PUCCRT) disease control; conditions: Puccinia triticina, topical; for pest or weed control at 100 ppm: rate 100 ppm; for pest or weed control at 121.5 g/ha: rate 121.5 g/H
Summary of the method: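 Brown rust on first-leaf Yuma wheat: spore inoculation before or after spray application (acetone/Triton X-100 solution, or EC with Trycol in track spray), overnight 100% RH at 22 °C, disease developed at 24 °C. Severity scored 0–100% and converted to percent control against untreated.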

Alternaria solani = assay: Tomato Early Blight (ALTESO) disease control; conditions: Alternaria solani, topical, 24 h, 1 Day Protectant, read-out: Disease Control ALTESO 1 DP
Procedure: Technical grades of materials were dissolved in acetone, which were then mixed with nine volumes of water containing 110 ppm Triton X-100. The fungicide solutions were applied onto wheat seedlings using an automated booth sprayer to run-off. All sprayed plants were allowed to air dry prior to further handling. All fungicides were evaluated using the aforementioned method for their activity vs. all target diseases. Wheat leaf blotch and brown rust activity were also evaluated using track spray applications, in which case the fungicides were formulated as EC formulations, containing 0.1% Trycol 5941 in the spray solutions. Wheat plants (variety Yuma) were grown from seed in a greenhouse in 50% mineral soil/50% soil-less Metro mix until the first leaf was fully emerged, with 7-10 seedlings per pot. These plants were inoculated with an aqueous spore suspension of Septoria tritici either prior to or after fungicide treatments. After inoculation the plants were kept in 100% relative humidity (one day in a dark dew chamber followed by two to three days in a lighted dew chamber at 20° C.) to permit spores to germinate and infect the leaf. The plants were then transferred to a greenhouse set at 20° C. for disease to develop. When disease symptoms were fully expressed on the 1st leaves of untreated plants, infection levels were assessed on a scale of 0 to 100 percent disease severity. Percent disease control was calculated using the ratio of disease severity on treated plants relative to untreated plants. Tomato plants (variety Outdoor girl) were propagated in soil-less Metro mix, with each pot having one plant, and used when 12 to 14 days old. Test plants were inoculated with an aqueous spore suspension of Alternaria solani 24 hr after fungicide treatments. After inoculation the plants were kept in 100% relative humidity (one day in a dark dew chamber followed by two to three days in a lighted dew chamber at 20° C.) to permit spores to germinate and infect the leaf. The plants were then transferred to a growth room at 22° C. for disease to develop. Fungicide formulation, application and disease assessment on the sprayed leaves followed the procedures as described in the Example A.

[3] = 24 h, 1 Day Protectant, read-out: SEPTTR 1 DP disease control
[4] = 72 h, 3 Day Curative, read-out: SEPTTR 3 DC disease control
[5] = 24 h, 1 Day Protectant, read-out: PUCCRT 1 DP disease control
[6] = 72 h, 3 Day Curative, read-out: PUCCRT 3 DC disease control

SMILES | pest or weed control at 100 ppm [1, 3] [%] | pest or weed control at 121.5 g/ha [1, 3] [%] | pest or weed control at 100 ppm [1, 4] [%] | pest or weed control at 121.5 g/ha [1, 4] [%] | pest or weed control at 100 ppm [2, 5] [%] | pest or weed control at 121.5 g/ha [2, 5] [%] | pest or weed control at 100 ppm [2, 6] [%] | pest or weed control at 121.5 g/ha [2, 6] [%] | pest or weed control at 100 ppm (Alternaria solani) [%]
COc1ccc(C[C@H]2CCC[C@H](NC(=O)c3nccc(OC)c3OCOC(C)=O)C(=O)O[C@@H](C)[C@@H]2Oc2ccccc2)cc1 [Compound F114] | 80 to 100 | 80 to 100 | 80 to 100 | 80 to 100 | 80 to 100 | 80 to 100 | 80 to 100 | 0 to 80 | 
COc1ccc(C[C@H]2CCC[C@H](NC(=O)c3nccc(OC)c3OCOC(C)=O)C(=O)O[C@@H](C)[C@@H]2OCC(C)C)cc1 [Compound F118] | 80 to 100 | 80 to 100 | 80 to 100 | 80 to 100 | 80 to 100 | 80 to 100 | 80 to 100 | 80 to 100 | 0 to 80
COc1ccnc(C(=O)N[C@H]2CCC[C@H](Cc3ccccc3)[C@@H](OCC3CC3)[C@H](C)OC2=O)c1OCOC(C)=O [Compound F107] | 80 to 100 | 80 to 100 | 80 to 100 | 80 to 100 | 80 to 100 | 80 to 100 | 80 to 100 | 80 to 100 | 80 to 100
COc1ccnc(C(=O)N[C@H]2CCC[C@H](Cc3ccc(C)cc3)[C@@H](OCC(C)C)[C@H](C)OC2=O)c1OCOC(C)=O [Compound F126] | 80 to 100 | 80 to 100 | 80 to 100 | 80 to 100 | 80 to 100 | 80 to 100 | 80 to 100 | 0 to 80 | 0 to 80
CCOCC(=O)OCOc1c(OC)ccnc1C(=O)N[C@H]1CCC[C@H](Cc2ccccc2)[C@@H](OCC2CC2)[C@H](C)OC1=O [Compound F173] | 80 to 100 | 80 to 100 | 80 to 100 | 80 to 100 | 80 to 100 | 80 to 100 | 80 to 100 | 80 to 100 | 80 to 100
CCCO[C@@H]1[C@@H](Cc2ccccc2)CCC[C@H](NC(=O)c2nccc(OC)c2OC(C)=O)C(=O)O[C@H]1C [Compound F88] |  | 80 to 100 |  | 80 to 100 |  | 80 to 100 |  | 80 to 100 | 80 to 100
CCCO[C@@H]1[C@@H](Cc2ccc(OC)cc2)CCC[C@H](NC(=O)c2nccc(OC)c2OCOC(C)=O)C(=O)O[C@H]1C [Compound F119] | 80 to 100 | 80 to 100 | 80 to 100 | 80 to 100 | 80 to 100 | 80 to 100 | 80 to 100 | 80 to 100 | 0 to 80
COc1ccnc(C(=O)N[C@H]2CCC[C@H](Cc3ccc(F)cc3)[C@@H](OCC(C)C)[C@H](C)OC2=O)c1OCOC(C)=O [Compound F102] | 80 to 100 | 80 to 100 | 80 to 100 | 80 to 100 | 80 to 100 | 80 to 100 | 80 to 100 | 0 to 80 | 
